Numbers after ± are expanded uncertainties.
Assay: xn = mol fraction of the nth substance listed
Conditions: 100.8 kPa, Liquid

Structure (SMILES): CC(C)CC(C)(C)C [2,2,4-trimethylpentane] + CCO
- mass density (298.15 K, x2 = 0): 687.89 ± 0.32 kg/m3
- viscosity (298.15 K, x2 = 0): 0.474 ± 0.014 mPa·s
- mass density (298.15 K, x2 = 0.05): 688.94 ± 0.32 kg/m3
- viscosity (298.15 K, x2 = 0.05): 0.472 ± 0.014 mPa·s
- mass density (298.15 K, x2 = 0.1): 690.43 ± 0.32 kg/m3
- viscosity (298.15 K, x2 = 0.1): 0.47 ± 0.014 mPa·s
- mass density (298.15 K, x2 = 0.15): 692.16 ± 0.32 kg/m3
- viscosity (298.15 K, x2 = 0.15): 0.476 ± 0.014 mPa·s
- mass density (298.15 K, x2 = 0.2): 694.08 ± 0.32 kg/m3
- viscosity (298.15 K, x2 = 0.2): 0.485 ± 0.014 mPa·s
- mass density (298.15 K, x2 = 0.25): 696.22 ± 0.32 kg/m3
- viscosity (298.15 K, x2 = 0.25): 0.494 ± 0.014 mPa·s
- mass density (298.15 K, x2 = 0.3): 698.58 ± 0.31 kg/m3
- viscosity (298.15 K, x2 = 0.3): 0.506 ± 0.014 mPa·s
- mass density (298.15 K, x2 = 0.35): 701.19 ± 0.31 kg/m3
- viscosity (298.15 K, x2 = 0.35): 0.52 ± 0.014 mPa·s
- mass density (298.15 K, x2 = 0.4): 704.04 ± 0.31 kg/m3
- viscosity (298.15 K, x2 = 0.4): 0.538 ± 0.014 mPa·s
- mass density (298.15 K, x2 = 0.45): 707.19 ± 0.31 kg/m3
- viscosity (298.15 K, x2 = 0.45): 0.558 ± 0.014 mPa·s
- mass density (298.15 K, x2 = 0.5): 710.69 ± 0.3 kg/m3
- viscosity (298.15 K, x2 = 0.5): 0.583 ± 0.015 mPa·s
- mass density (298.15 K, x2 = 0.55): 714.59 ± 0.3 kg/m3
- viscosity (298.15 K, x2 = 0.55): 0.611 ± 0.015 mPa·s
- mass density (298.15 K, x2 = 0.6): 718.95 ± 0.3 kg/m3
- viscosity (298.15 K, x2 = 0.6): 0.642 ± 0.015 mPa·s
- mass density (298.15 K, x2 = 0.65): 723.82 ± 0.29 kg/m3
- viscosity (298.15 K, x2 = 0.65): 0.675 ± 0.015 mPa·s
- mass density (298.15 K, x2 = 0.7): 729.34 ± 0.29 kg/m3
- viscosity (298.15 K, x2 = 0.7): 0.71 ± 0.016 mPa·s
- mass density (298.15 K, x2 = 0.75): 735.56 ± 0.28 kg/m3
- viscosity (298.15 K, x2 = 0.75): 0.75 ± 0.016 mPa·s
- mass density (298.15 K, x2 = 0.8): 742.67 ± 0.28 kg/m3
- viscosity (298.15 K, x2 = 0.8): 0.797 ± 0.017 mPa·s
- mass density (298.15 K, x2 = 0.85): 750.87 ± 0.27 kg/m3
- viscosity (298.15 K, x2 = 0.85): 0.853 ± 0.017 mPa·s
- mass density (298.15 K, x2 = 0.9): 760.47 ± 0.27 kg/m3
- viscosity (298.15 K, x2 = 0.9): 0.916 ± 0.018 mPa·s
- mass density (298.15 K, x2 = 0.95): 771.78 ± 0.26 kg/m3
- viscosity (298.15 K, x2 = 0.95): 0.989 ± 0.019 mPa·s
- mass density (308.15 K, x2 = 0): 679.55 ± 0.33 kg/m3
- viscosity (308.15 K, x2 = 0): 0.425 ± 0.014 mPa·s
- mass density (308.15 K, x2 = 0.05): 680.44 ± 0.33 kg/m3
- viscosity (308.15 K, x2 = 0.05): 0.421 ± 0.013 mPa·s
- mass density (308.15 K, x2 = 0.1): 681.85 ± 0.33 kg/m3
- viscosity (308.15 K, x2 = 0.1): 0.419 ± 0.013 mPa·s
- mass density (308.15 K, x2 = 0.15): 683.55 ± 0.33 kg/m3
- viscosity (308.15 K, x2 = 0.15): 0.423 ± 0.014 mPa·s
- mass density (308.15 K, x2 = 0.2): 685.46 ± 0.32 kg/m3
- viscosity (308.15 K, x2 = 0.2): 0.428 ± 0.014 mPa·s
- mass density (308.15 K, x2 = 0.25): 687.59 ± 0.32 kg/m3
- viscosity (308.15 K, x2 = 0.25): 0.435 ± 0.014 mPa·s
- mass density (308.15 K, x2 = 0.3): 689.91 ± 0.32 kg/m3
- viscosity (308.15 K, x2 = 0.3): 0.443 ± 0.014 mPa·s
- mass density (308.15 K, x2 = 0.35): 692.48 ± 0.32 kg/m3
- viscosity (308.15 K, x2 = 0.35): 0.453 ± 0.014 mPa·s
- mass density (308.15 K, x2 = 0.4): 695.33 ± 0.31 kg/m3
- viscosity (308.15 K, x2 = 0.4): 0.469 ± 0.014 mPa·s
- mass density (308.15 K, x2 = 0.45): 698.47 ± 0.31 kg/m3
- viscosity (308.15 K, x2 = 0.45): 0.487 ± 0.014 mPa·s
- mass density (308.15 K, x2 = 0.5): 701.95 ± 0.31 kg/m3
- viscosity (308.15 K, x2 = 0.5): 0.507 ± 0.014 mPa·s
- mass density (308.15 K, x2 = 0.55): 705.81 ± 0.31 kg/m3
- viscosity (308.15 K, x2 = 0.55): 0.53 ± 0.014 mPa·s
- mass density (308.15 K, x2 = 0.6): 710.14 ± 0.3 kg/m3
- viscosity (308.15 K, x2 = 0.6): 0.555 ± 0.014 mPa·s
- mass density (308.15 K, x2 = 0.65): 714.99 ± 0.3 kg/m3
- viscosity (308.15 K, x2 = 0.65): 0.583 ± 0.015 mPa·s
- mass density (308.15 K, x2 = 0.7): 720.46 ± 0.29 kg/m3
- viscosity (308.15 K, x2 = 0.7): 0.614 ± 0.015 mPa·s
- mass density (308.15 K, x2 = 0.75): 726.64 ± 0.29 kg/m3
- viscosity (308.15 K, x2 = 0.75): 0.647 ± 0.015 mPa·s
- mass density (308.15 K, x2 = 0.8): 733.71 ± 0.28 kg/m3
- viscosity (308.15 K, x2 = 0.8): 0.685 ± 0.016 mPa·s
- mass density (308.15 K, x2 = 0.85): 741.88 ± 0.28 kg/m3
- viscosity (308.15 K, x2 = 0.85): 0.731 ± 0.016 mPa·s
- mass density (308.15 K, x2 = 0.9): 751.45 ± 0.27 kg/m3
- viscosity (308.15 K, x2 = 0.9): 0.784 ± 0.017 mPa·s
- mass density (308.15 K, x2 = 0.95): 762.83 ± 0.27 kg/m3
- viscosity (308.15 K, x2 = 0.95): 0.843 ± 0.017 mPa·s
- mass density (318.15 K, x2 = 0): 671.1 ± 0.34 kg/m3
- viscosity (318.15 K, x2 = 0): 0.38 ± 0.013 mPa·s
- mass density (318.15 K, x2 = 0.05): 671.89 ± 0.33 kg/m3
- viscosity (318.15 K, x2 = 0.05): 0.376 ± 0.013 mPa·s
- mass density (318.15 K, x2 = 0.1): 673.2 ± 0.33 kg/m3
- viscosity (318.15 K, x2 = 0.1): 0.377 ± 0.013 mPa·s
- mass density (318.15 K, x2 = 0.15): 674.81 ± 0.33 kg/m3
- viscosity (318.15 K, x2 = 0.15): 0.378 ± 0.013 mPa·s
- mass density (318.15 K, x2 = 0.2): 676.67 ± 0.33 kg/m3
- viscosity (318.15 K, x2 = 0.2): 0.381 ± 0.013 mPa·s
